# Results reported in PubChem BioAssay (NCI).
#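 Cultured in 96-well plates, cells were exposed to test compound for 48 hours across five concentrations. GI50 = concentration required for 50% inhibition of growth. At the TGI there is no net growth.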
# Key:
# Assay in all cases: NCI-60 cell line screen, 48 h
# A498 renal = system: A498 renal
# MDA-MB-435 = system: MDA-MB-435
# NCI-H226 lung = system: NCI-H226 lung
# NCI/ADR-RES ovarian = system: NCI/ADR-RES ovarian
# PC-3 prostate = system: PC-3 prostate
# SK-OV-3 ovarian = system: SK-OV-3 ovarian
# DMS 114 small cell lung = system: DMS 114 small cell lung
# DMS 273 small cell lung = system: DMS 273 small cell lung
# HOP-92 NSCLC = system: HOP-92 NSCLC
# IGROV1 ovarian = system: IGROV1 ovarian
Compound,GI50 (A498 renal),TGI (A498 renal),GI50 (MDA-MB-435),TGI (MDA-MB-435),GI50 (NCI-H226 lung),TGI (NCI-H226 lung),GI50 (NCI/ADR-RES ovarian),TGI (NCI/ADR-RES ovarian),GI50 (PC-3 prostate),TGI (PC-3 prostate),GI50 (SK-OV-3 ovarian),TGI (SK-OV-3 ovarian),GI50 (DMS 114 small cell lung),TGI (DMS 114 small cell lung),GI50 (DMS 273 small cell lung),TGI (DMS 273 small cell lung),GI50 (HOP-92 NSCLC),TGI (HOP-92 NSCLC),GI50 (IGROV1 ovarian),TGI (IGROV1 ovarian)
Cc1cc(N2CCCCC2)nc(NCc2cc(Nc3ccnc4cc(Cl)ccc34)ccc2F)n1,0.178 µM,0.999 µM,1.64 µM,3.14 µM,2.02 µM,4.57 µM,2 µM,4.74 µM,1.9 µM,4.04 µM,1.93 µM,3.48 µM,–,–,–,–,–,–,–,–
CN(C)C=O.CN(C)C=O.CN1C(C(=O)Nc2ccccn2)=C([O-])c2ccccc2S1(=O)=O.CN1C(C(=O)Nc2ccccn2)=C([O-])c2ccccc2S1(=O)=O.[Cu+2],24.2 µM,65.3 µM,–,–,–,–,–,–,–,–,–,45.8 µM,32.2 µM,> 100 µM,35.9 µM,> 100 µM,22.1 µM,51.1 µM,36.3 µM,> 100 µM
COc1ccc2c(c1)C(=O)c1c-2n(CCCCl)c(=O)c2cc([N+](=O)[O-])ccc12,1.39 µM,–,0.985 µM,9.22 µM,< 0.01 µM,> 100 µM,0.0815 µM,–,1.68 µM,> 100 µM,0.569 µM,> 100 µM,–,–,–,–,–,–,0.0585 µM,6.57 µM
NS(=O)(=O)c1ccc(C(=O)O)cc1,–,> 100 µM,–,> 100 µM,–,–,–,> 100 µM,–,> 100 µM,–,> 100 µM,–,–,–,–,–,> 100 µM,–,> 100 µM
Cc1nc2ccccc2c(=O)n1Nc1ccc(C(=O)O)cc1,–,> 100 µM,–,–,–,> 100 µM,–,> 100 µM,–,–,–,> 100 µM,–,> 100 µM,–,> 100 µM,–,> 100 µM,–,> 100 µM
O=C(O)\C=C/C=C/C=C/C=C/C(=O)O,–,> 100 µM,–,–,–,> 100 µM,–,–,–,–,–,> 100 µM,–,> 100 µM,–,> 100 µM,–,–,–,> 100 µM
O=C1CC(c2ccccc2)NCCCCN2CC(CN1)C(C(O)c1ccccc1)C2=O (configuration not stated),–,> 100 µM,–,> 100 µM,–,> 100 µM,–,> 100 µM,–,> 100 µM,–,> 100 µM,–,–,–,–,–,> 100 µM,–,> 100 µM
Nc1ccc([As](=O)(O)O)cc1,–,> 100 µM,–,> 100 µM,–,> 100 µM,–,> 100 µM,–,> 100 µM,–,> 100 µM,–,–,–,–,–,> 100 µM,–,> 100 µM
Cc1cccc(NC(N)=S)c1,–,> 100 µM,–,–,–,–,–,–,–,–,–,> 100 µM,–,> 100 µM,–,–,–,–,–,–
O=C(Nc1ccc(-n2ccc3c(NC(=O)c4ccccc4)ncnc32)cc1)Nc1ccc(Cl)c(C(F)(F)F)c1,1.51 µM,3.65 µM,1.85 µM,4.43 µM,2.39 µM,7.06 µM,2.41 µM,8.55 µM,1.25 µM,3.01 µM,–,–,–,–,–,–,1.41 µM,4 µM,1.77 µM,3.91 µM
CC1(C)CCc2cc3c(cc2O1)OC(C)(C)CC3=O,–,–,–,–,–,> 100 µM,–,–,–,–,–,> 100 µM,–,> 100 µM,–,> 100 µM,–,70.7 µM,–,> 100 µM
CC(C)(c1ccccc1)c1ccc(Oc2ccc3c(c2)-c2nc-3nc3[nH]c(nc4nc(nc5[nH]c(n2)c2ccc(Oc6ccc(C(C)(C)c7ccccc7)cc6)cc52)-c2cc(Oc5ccc(C(C)(C)c6ccccc6)cc5)ccc2-4)c2ccc(Oc4ccc(C(C)(C)c5ccccc5)cc4)cc32)cc1,–,> 100 µM,–,–,–,–,–,–,–,–,–,> 100 µM,–,–,–,> 100 µM,–,> 100 µM,–,> 100 µM
CCc1cc(C)cc2[n+]1CC=C2C,–,–,–,–,–,> 100 µM,–,–,–,–,–,–,–,–,–,> 100 µM,–,> 100 µM,–,–
COc1ccc(C(=O)NNC(=O)c2nsc3ccccc23)cc1,–,–,–,–,–,–,–,–,–,–,–,–,–,> 100 µM,–,> 100 µM,–,> 100 µM,–,> 100 µM
